Source: ChEMBL document CHEMBL1121807, “Potential thyroliberin affinity labels. 1. Chloroacetyl-substituted phenylalanylpyrrolidines” (1981)

Key:
Rattus norvegicus [1] = species on record: Rattus norvegicus; assay: Agonist activity relative to TRH (Thyroliberin) was evaluated in rat; None at a dose up to 30 ug; type: functional, organism-based
Rattus norvegicus [2] = species on record: Rattus norvegicus; assay: Agonist activity relative to TRH (Thyroliberin) was evaluated in rat; type: functional
Rattus norvegicus [3] = species on record: Rattus norvegicus; assay: Agonist activity relative to TRH (Thyroliberin) was evaluated in rat at a dose of 0.6 ng; type: functional
Rattus norvegicus [4] = species on record: Rattus norvegicus; assay: Agonist activity relative to TRH (Thyroliberin) was evaluated in rat; none at a dose up to 30 ug; type: functional, organism-based

SMILES: O=C(CCl)NC(Cc1ccccc1)C(=O)N1CCCC1 (configuration not stated)
- Relative activity (Rattus norvegicus [1]): None

SMILES: C[C@H](NC(=O)c1ccc(C(=O)CCl)cc1)C(=O)N[C@@H](Cc1ccccc1)C(=O)N1CCCC1
- Relative activity (Rattus norvegicus [2]): 0.005%

SMILES: NC(=O)[C@@H]1CCCN1C(=O)[C@H](Cc1c[nH]cn1)NC(=O)[C@@H]1CCC(=O)N1 [PROTIRELIN]
- Relative activity (Rattus norvegicus [3]): 100%

SMILES: O=C(CCl)c1cccc(C(=O)NC(Cc2ccccc2)C(=O)N2CCCC2)c1 (configuration not stated)
- Relative activity (Rattus norvegicus [2]): 0.0012%

SMILES: O=C(CCl)c1ccc(C(=O)NC(Cc2ccccc2)C(=O)N2CCCC2)cc1 (configuration not stated)
- Relative activity (Rattus norvegicus [2]): 0.0006%

SMILES: C[C@H](NC(=O)c1cccc(C(=O)CCl)c1)C(=O)N[C@@H](Cc1ccccc1)C(=O)N1CCCC1
- Relative activity (Rattus norvegicus [4]): None

SMILES: C[C@H](NC(=O)CCl)C(=O)N[C@@H](Cc1ccccc1)C(=O)N1CCCC1
- Relative activity (Rattus norvegicus [1]): None
